Columns and labels:
[1] = biological target: AKT1 (Homo sapiens, UniProt P31749); test: Kinase inhibition screening; type: biochemical; conditions: 10-dose, starting at 100 μM, 1 μM ATP
Method: (§1) To determine kinase activity of DAL, various kinases (AKT1, AKT2, AKT3, PKA, PKC alpha, PKC delta, PAK1, EPHB2, EPHB4, p38 alpha, PI3K-alpha, PI3K-beta, PI3K-gamma, PI3K-delta) were screened in a 10-dose IC50 mode with threefold serial dilutions starting at 100 μM. Staurosporine was used as a control starting at 10 μM and the reactions were carried out at 1 μM ATP.
(§2) Without wishing to be bound by theory, DAL brings about its antivascular effects by destabilizing cell adhesion through the actin cytoskeleton. It was next sought to identify which specific adhesion pathway it targets. Mechanical attachment at cell-cell adherens and tight junctions is regulated by dynamic changes in the actin cytoskeleton. Adherens junctions are composed of E-cadherin/β-catenin complexes and are connected to the actin cytoskeleton via sa-catenin (25-26), while tight junctions consist of transmembrane claudins and occludin and are associated with the actin cytoskeleton via ZO proteins (27-28). Therefore, potential targets of DAL in signaling pathways involved in actin remodeling were evaluated. […] Then, it was sought to determine whether Rho-GTPase family members are targets for DAL due to the disruption of cell adhesion and actin network remodeling along with inhibited motility. Rho-GTPases (e.g., Rac1) plays an important role in actin cytoskeletal organization and is involved in the coordination of cell adhesion (29). Furthermore, Rac1 is responsible for stabilizing endothelial cell junctions by opposing actin remodeling by Rho (30). In order to migrate, cancer cells employ dynamic remodeling of the actin cytoskeleton, form protrusive structures and generate forces necessary to produce cell translocation in the process regulated by Rho-GTPase Rac1. To assess whether DAL can modulate Rac1, RhoA, and Cdc42 activities, affinity purification assays were employed to monitor RhoA and Cdc42/Rac1 activity. The Rho-Binding Domain (RBD) of the Rho effector protein rhotekin and the p21 Binding Domain (PBD) of the Cdc42/Rac effector protein p21 activated kinase 1 (PAK) were applied to pull down active forms of each protein.

[2] = biological target: AKT2 (Homo sapiens, UniProt P31751); test: Kinase inhibition screening; type: biochemical; conditions: 10-dose, starting at 100 μM, 1 μM ATP
Method: as §1, §2

[3] = biological target: AKT3 (Homo sapiens, UniProt Q9Y243); test: Kinase inhibition screening; type: biochemical; conditions: 10-dose, starting at 100 μM, 1 μM ATP
Method: as §1, §2

[4] = biological target: EPHB2 (Homo sapiens, UniProt P29323); test: Kinase inhibition screening; type: biochemical; conditions: 10-dose, starting at 100 μM, 1 μM ATP
Method: as §1, §2

[5] = biological target: EPHB4 (Homo sapiens, UniProt P54760); test: Kinase inhibition screening; type: biochemical; conditions: 10-dose, starting at 100 μM, 1 μM ATP
Method: as §1, §2

[6] = biological target: PAK1 (Homo sapiens, UniProt Q13153); test: Kinase inhibition screening; type: biochemical; conditions: 10-dose, starting at 100 μM, 1 μM ATP
Method: as §1, §2

[7] = biological target: PI3K-alpha (Homo sapiens, UniProt P42336); test: Kinase inhibition screening; type: biochemical; conditions: 10-dose, starting at 100 μM, 1 μM ATP
PI3K-alpha, sequence (P42336 whole entry, species assumed): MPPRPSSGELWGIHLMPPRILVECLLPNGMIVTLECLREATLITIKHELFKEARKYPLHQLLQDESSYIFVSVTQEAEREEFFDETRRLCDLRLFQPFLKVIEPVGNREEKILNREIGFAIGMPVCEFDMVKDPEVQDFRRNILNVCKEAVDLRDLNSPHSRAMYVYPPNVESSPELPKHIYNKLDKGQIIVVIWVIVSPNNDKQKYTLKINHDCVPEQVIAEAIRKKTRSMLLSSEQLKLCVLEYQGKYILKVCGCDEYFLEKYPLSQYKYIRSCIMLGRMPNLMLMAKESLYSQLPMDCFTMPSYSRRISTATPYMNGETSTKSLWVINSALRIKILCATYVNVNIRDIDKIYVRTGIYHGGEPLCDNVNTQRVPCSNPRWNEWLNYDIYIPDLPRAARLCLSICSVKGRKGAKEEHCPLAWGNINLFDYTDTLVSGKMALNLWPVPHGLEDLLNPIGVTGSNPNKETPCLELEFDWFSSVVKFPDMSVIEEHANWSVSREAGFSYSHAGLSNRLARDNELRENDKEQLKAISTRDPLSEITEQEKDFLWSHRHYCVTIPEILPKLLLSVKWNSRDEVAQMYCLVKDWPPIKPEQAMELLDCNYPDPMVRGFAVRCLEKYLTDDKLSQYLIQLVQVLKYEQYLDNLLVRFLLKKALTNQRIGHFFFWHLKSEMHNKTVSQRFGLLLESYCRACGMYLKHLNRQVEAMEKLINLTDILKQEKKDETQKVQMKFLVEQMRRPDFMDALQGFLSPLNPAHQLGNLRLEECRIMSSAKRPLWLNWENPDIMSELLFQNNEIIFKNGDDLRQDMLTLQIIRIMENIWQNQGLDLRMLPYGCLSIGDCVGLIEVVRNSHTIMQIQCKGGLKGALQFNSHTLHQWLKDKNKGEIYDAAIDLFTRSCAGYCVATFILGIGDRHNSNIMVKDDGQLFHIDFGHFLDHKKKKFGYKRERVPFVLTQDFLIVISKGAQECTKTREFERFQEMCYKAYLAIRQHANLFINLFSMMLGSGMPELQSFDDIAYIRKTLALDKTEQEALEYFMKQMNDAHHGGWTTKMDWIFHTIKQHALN
PI3K-alpha, sequence (P27986 whole entry partner, species assumed): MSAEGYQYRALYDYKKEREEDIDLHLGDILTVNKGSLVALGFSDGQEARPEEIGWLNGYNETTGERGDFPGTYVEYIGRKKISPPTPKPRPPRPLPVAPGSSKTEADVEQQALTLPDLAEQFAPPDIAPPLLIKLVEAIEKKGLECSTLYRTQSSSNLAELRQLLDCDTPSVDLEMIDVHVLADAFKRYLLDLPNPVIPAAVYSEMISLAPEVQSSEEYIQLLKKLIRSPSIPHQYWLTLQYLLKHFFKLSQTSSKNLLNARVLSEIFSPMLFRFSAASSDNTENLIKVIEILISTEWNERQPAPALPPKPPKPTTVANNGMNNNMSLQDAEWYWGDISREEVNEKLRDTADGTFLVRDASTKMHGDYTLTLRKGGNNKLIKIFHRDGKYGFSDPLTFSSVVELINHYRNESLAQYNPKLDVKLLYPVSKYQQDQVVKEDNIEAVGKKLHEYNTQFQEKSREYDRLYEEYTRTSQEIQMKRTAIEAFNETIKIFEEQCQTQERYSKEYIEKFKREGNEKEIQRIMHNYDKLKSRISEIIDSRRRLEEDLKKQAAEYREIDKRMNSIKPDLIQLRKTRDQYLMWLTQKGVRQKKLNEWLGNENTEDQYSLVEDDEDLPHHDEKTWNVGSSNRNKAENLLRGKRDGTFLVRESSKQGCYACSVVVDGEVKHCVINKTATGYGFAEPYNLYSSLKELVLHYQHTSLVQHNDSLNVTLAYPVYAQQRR
Method: as §1, §2

[8] = biological target: PI3K-beta (Homo sapiens, UniProt P42338); test: Kinase inhibition screening; type: biochemical; conditions: 10-dose, starting at 100 μM, 1 μM ATP
Method: as §1, §2

[9] = biological target: PI3K-delta (Homo sapiens, UniProt O00329); test: Kinase inhibition screening; type: biochemical; conditions: 10-dose, starting at 100 μM, 1 μM ATP
Method: as §1, §2

[10] = biological target: PI3K-gamma (Homo sapiens, UniProt P48736); test: Kinase inhibition screening; type: biochemical; conditions: 10-dose, starting at 100 μM, 1 μM ATP
PI3K-gamma, sequence (P48736 whole entry, species assumed): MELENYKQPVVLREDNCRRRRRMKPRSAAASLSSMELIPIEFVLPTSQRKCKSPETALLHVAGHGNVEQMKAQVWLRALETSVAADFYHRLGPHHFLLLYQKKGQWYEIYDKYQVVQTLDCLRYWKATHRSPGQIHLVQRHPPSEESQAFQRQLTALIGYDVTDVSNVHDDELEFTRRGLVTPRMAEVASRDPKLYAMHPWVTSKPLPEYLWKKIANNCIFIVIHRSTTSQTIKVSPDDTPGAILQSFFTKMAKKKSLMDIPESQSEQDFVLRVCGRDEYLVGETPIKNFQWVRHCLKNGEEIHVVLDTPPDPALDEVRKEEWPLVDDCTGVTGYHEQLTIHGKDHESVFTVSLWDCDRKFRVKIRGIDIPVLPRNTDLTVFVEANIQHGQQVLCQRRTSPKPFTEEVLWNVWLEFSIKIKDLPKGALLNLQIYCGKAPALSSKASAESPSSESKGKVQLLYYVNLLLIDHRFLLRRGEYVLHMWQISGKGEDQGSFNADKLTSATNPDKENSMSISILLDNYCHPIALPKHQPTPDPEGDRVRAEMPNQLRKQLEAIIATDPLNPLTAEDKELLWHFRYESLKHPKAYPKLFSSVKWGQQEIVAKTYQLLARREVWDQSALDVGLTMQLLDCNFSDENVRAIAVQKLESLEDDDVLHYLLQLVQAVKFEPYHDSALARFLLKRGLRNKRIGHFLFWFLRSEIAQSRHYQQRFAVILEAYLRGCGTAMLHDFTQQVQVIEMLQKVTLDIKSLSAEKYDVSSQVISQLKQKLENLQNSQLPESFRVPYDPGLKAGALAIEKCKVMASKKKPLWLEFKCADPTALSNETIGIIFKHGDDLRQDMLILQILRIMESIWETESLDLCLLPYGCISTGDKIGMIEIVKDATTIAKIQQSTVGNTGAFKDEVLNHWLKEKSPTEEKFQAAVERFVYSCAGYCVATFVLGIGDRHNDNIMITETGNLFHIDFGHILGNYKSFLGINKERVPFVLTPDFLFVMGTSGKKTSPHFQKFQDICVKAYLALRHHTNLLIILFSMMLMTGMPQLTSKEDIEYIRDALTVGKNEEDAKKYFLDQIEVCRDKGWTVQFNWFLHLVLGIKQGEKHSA
Method: as §1, §2

[11] = biological target: PKA (Homo sapiens, UniProt P17612); test: Kinase inhibition screening; type: biochemical; conditions: 10-dose, starting at 100 μM, 1 μM ATP
Method: as §1, §2

[12] = biological target: PKC alpha (Homo sapiens, UniProt P17252); test: Kinase inhibition screening; type: biochemical; conditions: 10-dose, starting at 100 μM, 1 μM ATP
Method: as §1, §2

[13] = biological target: PKC delta (Homo sapiens, UniProt Q05655); test: Kinase inhibition screening; type: biochemical; conditions: 10-dose, starting at 100 μM, 1 μM ATP
PKC delta, sequence (Q05655 whole entry): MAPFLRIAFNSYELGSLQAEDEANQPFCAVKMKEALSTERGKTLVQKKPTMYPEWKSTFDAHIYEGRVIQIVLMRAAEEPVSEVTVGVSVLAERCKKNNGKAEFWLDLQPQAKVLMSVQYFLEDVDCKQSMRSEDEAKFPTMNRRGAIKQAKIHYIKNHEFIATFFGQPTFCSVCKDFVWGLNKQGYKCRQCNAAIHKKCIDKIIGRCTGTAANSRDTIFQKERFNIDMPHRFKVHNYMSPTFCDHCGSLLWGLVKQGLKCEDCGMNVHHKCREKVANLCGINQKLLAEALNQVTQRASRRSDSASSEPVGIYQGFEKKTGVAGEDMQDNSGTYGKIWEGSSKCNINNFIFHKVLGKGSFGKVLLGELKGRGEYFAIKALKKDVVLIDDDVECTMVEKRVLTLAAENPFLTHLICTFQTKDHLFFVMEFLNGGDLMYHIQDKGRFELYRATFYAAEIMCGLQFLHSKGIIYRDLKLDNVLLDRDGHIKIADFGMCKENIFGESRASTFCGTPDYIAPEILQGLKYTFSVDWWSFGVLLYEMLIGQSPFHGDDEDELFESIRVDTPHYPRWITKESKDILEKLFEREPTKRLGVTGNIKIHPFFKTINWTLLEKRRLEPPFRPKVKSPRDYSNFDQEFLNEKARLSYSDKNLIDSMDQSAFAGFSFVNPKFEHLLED
Method: as §1, §2

[14] = biological target: p38 alpha (Homo sapiens, UniProt Q16539); test: Kinase inhibition screening; type: biochemical; conditions: 10-dose, starting at 100 μM, 1 μM ATP
p38 alpha, sequence (Q16539 whole entry): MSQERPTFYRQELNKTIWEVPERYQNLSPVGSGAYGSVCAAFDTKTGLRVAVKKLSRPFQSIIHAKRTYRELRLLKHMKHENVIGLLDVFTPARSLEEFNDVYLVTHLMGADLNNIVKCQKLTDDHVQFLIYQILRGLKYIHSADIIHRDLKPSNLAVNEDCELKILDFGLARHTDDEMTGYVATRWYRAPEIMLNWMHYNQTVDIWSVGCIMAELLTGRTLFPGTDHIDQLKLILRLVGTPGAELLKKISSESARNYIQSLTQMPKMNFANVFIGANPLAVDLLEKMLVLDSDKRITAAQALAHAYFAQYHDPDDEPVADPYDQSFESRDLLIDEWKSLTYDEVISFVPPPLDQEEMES
Method: as §1, §2

[15] = biological target: T1, IDO (Homo sapiens, UniProt P14902); test: IDO activity in HEK 293 cells expressing IDO (kynurenine, spectrophotometric); type: cell-based; conditions: kynurenine readout, 10-dose threefold dilutions
T1 construct: expressed in transfected cells; host or cells: HEK 293
T1 sequence (P14902 whole entry): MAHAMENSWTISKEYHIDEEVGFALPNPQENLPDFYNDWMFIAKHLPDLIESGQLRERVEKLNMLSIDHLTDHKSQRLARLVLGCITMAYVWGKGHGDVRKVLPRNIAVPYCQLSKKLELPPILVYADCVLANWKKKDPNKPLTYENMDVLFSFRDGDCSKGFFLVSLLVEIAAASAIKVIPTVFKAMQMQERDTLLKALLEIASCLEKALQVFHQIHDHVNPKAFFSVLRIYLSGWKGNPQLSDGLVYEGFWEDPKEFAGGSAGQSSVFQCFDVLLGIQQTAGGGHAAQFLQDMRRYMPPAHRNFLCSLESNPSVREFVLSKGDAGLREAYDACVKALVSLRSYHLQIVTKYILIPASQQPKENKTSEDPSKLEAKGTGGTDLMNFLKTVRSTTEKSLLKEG
Method: The IDO activity was analyzed by the presence of kynurenine with a spectrophotometric assay. DAL was tested in a 10-dose IC50 mode with threefold serial dilutions (0.1 μM, 0.3 μM, 0.9 μM, 2.7 μM, 8.1 μM, 24.3 μM, 72.9 μM, 218.7 μM, 656 μM and 2000 μM). […] DAL binds concurrently with the tryptophan substrate (Trp) and prevents the closure of the binding site lid that is critical for the reaction catalysis.
To determine whether DAL is an immuno-modulator, the effect of DAL on IDO activity was measured. To monitor IDO enzymatic activity, HEK 293 cells were engineered to express IDO and treated with DAL in a 10-dose IC50 mode with threefold serial dilutions. The IDO activity was analyzed by the presence of kynurenine (the first stable catabolite downstream of IDO) with a spectrophotometric assay (Katz et al., 2008; Littlejohn et al., 2000). […] Because DAL inhibits recombinant purified IDO in the enzymatic assay, it is likely that DAL physically interacts with IDO1, forming a complex that represses IDO1 activity. To elucidate a possible structural basis for this inhibition, comparative modeling and molecular docking were used (FIGS. 9A-9D). […] It was therefore assessed that if lid closure may be a critical step for the efficient reaction catalysis by IDO. […]

SMILES: CC1(C)C=CC2=C(O1)C(=O)c1ccccc1C2=O [DAL, dehydro-alpha-lapachone]
- effect on kinase AKT1 [1]: no significant effects
- effect on kinase AKT2 [2]: no significant effects
- effect on kinase AKT3 [3]: no significant effects
- effect on kinase EPHB2 [4]: no significant effects
- effect on kinase EPHB4 [5]: no significant effects
- effect on kinase PAK1 [6]: no significant effects
- effect on kinase PI3K-alpha [7]: no significant effects
- effect on kinase PI3K-beta [8]: no significant effects
- effect on kinase PI3K-delta [9]: no significant effects
- effect on kinase PI3K-gamma [10]: no significant effects
- effect on kinase PKA [11]: no significant effects
- effect on kinase PKC alpha [12]: no significant effects
- effect on kinase PKC delta [13]: no significant effects
- effect on kinase p38 alpha [14]: no significant effects
- IC50 [15]: ~300 nM
